# Test results reported in patent US20050197338A1, “Substituted pyrazole urea compounds for the treatment of inflammation” (priority 2003, published 2005).
# Target: T1, Rat IKK-2 (Rattus norvegicus, UniProt Q9QY78)
# T1 sequence (Q9QY78 1-757): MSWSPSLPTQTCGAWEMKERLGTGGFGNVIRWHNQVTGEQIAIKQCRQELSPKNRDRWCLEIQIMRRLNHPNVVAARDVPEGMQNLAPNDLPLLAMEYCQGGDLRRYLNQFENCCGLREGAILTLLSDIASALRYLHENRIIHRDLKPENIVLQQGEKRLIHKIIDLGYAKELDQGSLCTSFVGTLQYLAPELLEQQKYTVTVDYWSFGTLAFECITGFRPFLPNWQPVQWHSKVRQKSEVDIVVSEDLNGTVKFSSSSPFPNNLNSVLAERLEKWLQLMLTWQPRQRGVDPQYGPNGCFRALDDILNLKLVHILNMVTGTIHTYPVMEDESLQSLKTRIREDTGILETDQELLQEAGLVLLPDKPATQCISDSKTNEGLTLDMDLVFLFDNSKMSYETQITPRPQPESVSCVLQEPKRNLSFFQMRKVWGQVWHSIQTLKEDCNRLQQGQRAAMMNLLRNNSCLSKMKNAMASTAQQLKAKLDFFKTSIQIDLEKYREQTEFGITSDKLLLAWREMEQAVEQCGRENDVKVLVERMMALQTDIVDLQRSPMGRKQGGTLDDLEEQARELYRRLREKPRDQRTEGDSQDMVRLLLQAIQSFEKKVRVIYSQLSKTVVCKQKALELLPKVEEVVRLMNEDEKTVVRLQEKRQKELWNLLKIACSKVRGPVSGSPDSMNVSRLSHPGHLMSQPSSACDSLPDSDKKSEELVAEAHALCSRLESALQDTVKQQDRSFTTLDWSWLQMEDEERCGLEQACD
# Test: Rat IKK-2 enzyme assay
# Format: biochemical
# Settings: read-out: IC50 (μM) rIKK-2
# Experimental: Kinase activity was measured using a biotinylated […] peptide (Gly-Leu-Lys-Lys-Glu-Arg-Leu-Leu-Asp-Asp-Arg-His-Asp-Ser32-Gly-Leu-Asp-Ser36-Met-Lys-Asp-Glu-Glu) (American Peptide Co.). 20 μL of the standard reaction mixture contained 5 μM biotinylated IκBα peptide, 0.1 μCi/reaction [γ-^33P] ATP (Amersham) (about 1×10^5 cpm), 1 μM ATP (Sigma), 1 mM DTT (Sigma), 2 mM MgCl2 (Sigma), 2 mM MnCl2 (Sigma), 10 mM NaF (Sigma), 25 mM Hepes (Sigma) buffer, pH. 7.6 and 20 μL enzyme solution (50 nM/rxn or 200 ng/rxn) and 10 μL inhibitor in a final volume of 50 μL. After incubation at 25° C. for 60 min, 150 μL resin was added to each well to stop the reaction. Resin was mixed and allowed to settle for 1 h and 50 μL of supernatant was removed to a Micolite 2 flat bottom plate (Dynex). 150 μL of scintillation fluid (Microscint 40) (Packard) was added to each well. Incorporation of [γ-^33P] ATP was measured using a Top-Count NXT (Packard).
row,SMILES,IC50 [µM]
1,"NC(=O)Nc1cn(-c2ccc(-c3ccc(C(=O)OCc4ccc(F)cc4)c(F)c3)cc2)nc1C(N)=O [Example 164, 4-fluorobenzyl 4′-{3-(aminocarbonyl)-4-[(aminocarbonyl)amino]-1H-pyrazol-1-yl}-3-fluoro-1,1′-biphenyl-4-carboxylate]",7.27
2,"NC(=O)Nc1cn(-c2ccc(Br)cc2)nc1C(N)=O [Example 19, 1-(1-(4-bromophenyl)-3-carbamoyl-1H-pyrazol-4-yl)urea]",0.352
3,"N#Cc1ccc(-c2ccc(-n3cc(NC(N)=O)c(C(N)=O)n3)cc2)cc1 [Example 100, 4-[(aminocarbonyl)amino]-1-(4′-cyano-1,1′-biphenyl-4-yl)-1H-pyrazole-3-carboxamide]",0.171
4,"NC(=O)Nc1cn(-c2ccc(-c3ccccc3)cc2)nc1C(N)=O [Example 101, 4-[(aminocarbonyl)amino]-1-(1,1′-biphenyl-4-yl)-1H-pyrazole-3-carboxamide]",1.89
5,"NC(=O)Nc1cn(-c2ccc(-c3ccc(C(=O)OCc4cccc(F)c4)c(F)c3)cc2)nc1C(N)=O [Example 163, 3-fluorobenzyl 4′-{3-(aminocarbonyl)-4-[(aminocarbonyl)amino]-1H-pyrazol-1-yl}-3-fluoro-1,1′-biphenyl-4-carboxylate]",17.4
6,"NC(=O)Nc1cn(-c2ccc(-c3cc4ccccc4[nH]3)cc2)nc1C(N)=O [Example 141, 4-[(aminocarbonyl)amino]-1-[4-(1H-indol-2-yl)phenyl]-1H-pyrazole-3-carboxamide]",4
7,"CNC(=O)Nc1cn(-c2cccc(Br)c2)nc1C(N)=O [Example 15, 1-(3-bromophenyl)-4-{[(methylamino)carbonyl]amino}-1H-pyrazole-3-carboxamide]",4.45
8,"NC(=O)Nc1cn(-c2ccc(S(=O)(=O)C3CCCCC3)cc2)nc1C(N)=O [Example 192, 1-(3-carbamoyl-1-(4-(cyclohexylsulfonyl)phenyl)-1H-pyrazol-4-yl)urea]",0.297
9,"NC(=O)Nc1cn(-c2ccc(-c3cccc(O)c3)c(Cl)c2)nc1C(N)=O [Example 7, 4-[(aminocarbonyl)amino]-1-(2-chloro-3′-hydroxy-1,1′-biphenyl-4-yl)-1H-pyrazole-3-carboxamide]",0.121
10,"COc1ccc(-n2cc(NC(N)=O)c(C(N)=O)n2)cc1Cl [Example 209, 4-[(Aminocarbonyl)amino]-1-(3-chloro-4-methoxyphenyl)-1H-pyrazole-3-carboxamide]",1.08
11,"NC(=O)Nc1cn(-c2ccc(Br)c(F)c2)nc1C(N)=O [Example 225, 4-[(aminocarbonyl)amino]-1-(4-bromo-3-fluorophenyl)-1H-pyrazole-3-carboxamide]",0.292
12,"NC(=O)Nc1cn(-c2ccc(-c3cccc(O)c3)cc2F)nc1C(N)=O [Example 247, 4-[(aminocarbonyl)amino]-1-(3-fluoro-3′-hydroxy-1,1′-biphenyl-4-yl)-1H-pyrazole-3-carboxamide]",0.249
13,"Cc1cc(-c2cccc(O)c2)ccc1-n1cc(NC(N)=O)c(C(N)=O)n1 [Example 5, 4-[(aminocarbonyl)amino]-1-(3′-hydroxy-3-methyl-1,1′-biphenyl-4-yl)-1H-pyrazole-3-carboxamide]",3.71
14,"NC(=O)COc1cccc(-c2ccc(-n3cc(NC(N)=O)c(C(N)=O)n3)cc2)c1 [Example 175, 4-[(aminocarbonyl)amino]-1-[3′-(2-amino-2-oxoethoxy)-1,1′-biphenyl-4-yl]-1H-pyrazole-3-carboxamide]",0.181
15,"N#CCOc1ccc(F)cc1-c1cccc(-n2cc(NC(N)=O)c(C(N)=O)n2)c1 [Example 94, 4-[(aminocarbonyl)amino]-1-[2′-(cyanomethoxy)-5′-fluoro-1,1′-biphenyl-3-yl]-1H-pyrazole-3-carboxamide]",0.22
16,"CNC(=O)Nc1cn(-c2ccc(Br)cc2)nc1C(N)=O [Example 16, 1-(4-bromophenyl)-4-{[(methylamino)carbonyl]amino}-1H-pyrazole-3-carboxamide]",2.83
17,"NC(=O)Nc1cn(-c2ccc(I)cc2)nc1C(N)=O [Example 215, 4-[(aminocarbonyl)amino]-1-(4-iodophenyl)-1H-pyrazole-3-carboxamide]",0.091

row,SMILES,IC50 [µM]
1,"NC(=O)Nc1cn(-c2ccc(S(=O)(=O)c3ccc(F)cc3)cc2)nc1C(N)=O [Example 204, 1-(1-(4-(4-fluorophenylsulfonyl)phenyl)-3-carbamoyl-1H-pyrazol-4-yl)urea]",0.023
2,"N#CCOc1ccc(F)cc1-c1ccc(-n2cc(NC(N)=O)c(C(N)=O)n2)cc1 [Example 172, 4-[(aminocarbonyl)amino]-1-[2′-(cyanomethoxy)-5′-fluoro-1,1′-biphenyl-4-yl]-1H-pyrazole-3-carboxamide]",0.033
3,"N#CCCc1cccc(-c2ccc(-n3cc(NC(N)=O)c(C(N)=O)n3)cc2)c1 [Example 186, 4-[(aminocarbonyl)amino]-1-[3′-(2-cyanoethyl)-1,1′-biphenyl-4-yl]-1H-pyrazole-3-carboxamide]",0.475
4,"NC(=O)Nc1cn(-c2ccc(-c3ccc(C(=O)O)c(F)c3)cc2)nc1C(N)=O [Example 97, 4′-{3-(aminocarbonyl)-4-[(aminocarbonyl)amino]-1H-pyrazol-1-yl}-3-fluoro-1,1′-biphenyl-4-carboxylic acid]",0.18
5,"NC(=O)Nc1cn(-c2ccc(Br)c(C(F)(F)F)c2)nc1C(N)=O [Example 1, 4-[(aminocarbonyl)amino]-1-[4-bromo-3-(trifluoromethyl)phenyl]-1H-pyrazole-3-carboxamide]",0.108
6,"NC(=O)Nc1cn(-c2ccc(S(=O)(=O)c3ccccc3F)cc2)nc1C(N)=O [Example 194, 1-(1-(4-(2-fluorophenylsulfonyl)phenyl)-3-carbamoyl-1H-pyrazol-4-yl)urea]",0.173
7,"Cc1cc(I)ccc1-n1cc(NC(N)=O)c(C(N)=O)n1 [Example 4, 1-(4-iodo-2-methyl-phenyl)-4-ureido-1H-pyrazole-3-carboxylic acid amide]",1.93
8,"NC(=O)Nc1cn(-c2ccc(-c3ccc(C(=O)OCc4ccccc4F)c(F)c3)cc2)nc1C(N)=O [Example 162, 2-fluorobenzyl 4′-{3-(aminocarbonyl)-4-[(aminocarbonyl)amino]-1H-pyrazol-1-yl}-3-fluoro-1,1′-biphenyl-4-carboxylate]",13.6
9,"CCOc1cc(-n2cc(NC(N)=O)c(C(N)=O)n2)ccc1Br [Example 3, 4-[(aminocarbonyl)amino]-1-(4-bromo-3-ethoxyphenyl)-1H-pyrazole-3-carboxamide]",0.787
10,"NC(=O)Nc1cn(-c2ccc(-c3cc(F)ccc3O)cc2)nc1C(N)=O [Example 99, 4-[(aminocarbonyl)amino]-1-(5′-fluoro-2′-hydroxy-1,1′-biphenyl-4-yl)-1H-pyrazole-3-carboxamide]",0.555
11,"NC(=O)Nc1cn(-c2ccc(-c3ccc(-c4nnn[nH]4)cc3)cc2)nc1C(N)=O [Example 187, 4-[(aminocarbonyl)amino]-1-[4′-(1H-tetrazol-5-yl)-1,1′-biphenyl-4-yl]-1H-pyrazole-3-carboxamide]",0.441
12,"CN(C)CCN(C)C(=O)c1ccc(-c2ccc(-n3cc(NC(N)=O)c(C(N)=O)n3)cc2)cc1F [Example 160, 4-[(aminocarbonyl)amino]-1-(4′-{[[2-(dimethylamino)ethyl](methyl)amino]carbonyl}-3′-fluoro-1,1′-biphenyl-4-yl)-1H-pyrazole-3-carboxamide]",7.19
13,"NC(=O)Nc1cn(-c2ccc(Sc3ccccn3)cc2)nc1C(N)=O [Example 205, 1-(3-carbamoyl-1-(4-(pyridin-2-ylthio)phenyl)-1H-pyrazol-4-yl)urea]",0.258
14,"CC(C)(C)OC(=O)COc1cccc(-c2ccc(-n3cc(NC(N)=O)c(C(N)=O)n3)cc2)c1 [Example 174, tert-butyl [(4′-{3-(aminocarbonyl)-4-[(aminocarbonyl)amino]-1H-pyrazol-1-yl}-1,1′-biphenyl-3-yl)oxy]acetate]",2.49
15,"NC(=O)Nc1cn(-c2cccc(-c3cc(F)ccc3O)c2)nc1C(N)=O [Example 93, 4-[(aminocarbonyl)amino]-1-(5′-fluoro-2′-hydroxy-1,1′-biphenyl-3-yl)-1H-pyrazole-3-carboxamide]",1.82
16,"Cc1cc(-n2cc(NC(N)=O)c(C(N)=O)n2)ccc1I [Example 8, 1-(4-iodo-3-methyl-phenyl)-4-ureido-1H-pyrazole-3-carboxylic acid amide]",0.089
